# Columns and labels:
# [1] = tested on: genetic markers related to neuroplasticity; assay: PBBI in rats: neuroplasticity mRNA arrays; type: in vivo
# Description: (§1) The unilateral frontal PBBI model, which mimics the ballistic dynamics of a bullet or fragment wound to the head (Williams, 2003; Williams, 2006), was induced by stereotactic insertion of a custom probe through the right frontal cortex. A temporary cavity was formed by the rapid inflation/deflation (i.e. <40 msec) of an elastic balloon attached to the end of the probe. The PBBI apparatus consisted of a computer-controlled hydraulic pressure generator (Mitre Corp McLean, Va.), a PBBI probe and a stereotaxic frame equipped with a custom-designed probe holder as previously described (Lu, 2009; Williams, 2003). The injury severity was determined by the size of the balloon under control of the computerized hydraulic pressure. The balloon diameter calibrated to 0.63 cm expansion represented 10% of the total rat brain volume thus expressing a 10% PBBI. All surgeries were done under anaesthesia. Groups tested: Sham+vehicle, PBBI+vehicle, PBBI+cG-2-AllylP (30 mg/kg by oral gavage, 30 min post-injury, and again once daily until endpoint). AU procedures were approved by the Institutional Animal Care and Use Committee of WRAIR. Animals were housed in a facility accredited by the AAALAC.
# cG-2-AllylP (or vehicle) was administered to the animals via oral gavage at a dose of 30 mg/kg.
# cDNA was generated. From total RNA from individual animals using random primers. cDNA was plated unto a targeted PCR array produced by SA Biosciences and product was detected using SyBr green fluorescence. Ct levels were normalized to beta actin. Injury results were compared to sham to evaluate relative quantities (RQ) (n=6 per group).
# [2] = tested on: Fmr1-K02 mice and wildtype (WT) littermates; assay: Inspection of animals for toxicity in Fragile X studies; type: in vivo; conditions: fmr1-knockout and wild-type mice
# Description: Experiments were conducted in accordance with the United Kingdom Animals (Scientific Procedures) Act of 1986. Fmr1-K02 mice and wildtype (WT) littermates were generated on a C57BL/6J background and repeatedly backcrossed onto a C57BL/6J background for more than eight generations and send to Chile by the Jackson's laboratory. Mice were grouping housed (4-6 per cage) and all animals were provided with ad libitum food and water unless otherwise stated. Mice were maintained on a 12 h light/dark cycle (lights off 19:00 to 7:00) in a temperature-controlled environment (21±1° C.).
# Animals were inspected for differences in coat appearance, whether any piloerection is present, eye condition (runny eyes or porphyria, ptosis) gait appearance, tremor, tail tone, reactivity to handling, etc.
# [3] = tested on: BCL2; assay: PBBI in rats: BCL2 Western blotting; type: in vivo; conditions: 24 hr, 3 and 7 days after PBBI
# Description: as §1, with “AAALAC. […]” for “AAALAC.”
# Samples were analysed at 24 hr and 3 and 7 days post-injury for all groups (sham+vehicle, PBBI+vehicle, PBBI+cG-2-AllylP). […]
# [4] = tested on: MeCP2 deficient mice; assay: Survival of MeCP2 deficient mice (Rett Syndrome model); conditions: for survival: MeCP2 deficient mice
# Description: We treat hemizygous MeCP2(1lox) male mice with 20 mg/kg/day of cG-2-AllylP or saline, (0.01% BSA, n=15 per group in survival experiment and n=20 in the LTP experiment). The treatments are administered intraperitoneally from 4 weeks after birth. For the survival experiments the treatment is maintained through the course of the experiment. For the LTP experiment the mice are treated until week 9 when they are used for slice preparation.
# MeCP2 deficient mutant mice develop RTT symptoms at about 4-6 weeks of age and […] (Chen et al., 2001. Nat Genet 27: 327-331). We compare the survival of the wild type controls and the MeCP2 deficient animals in vehicle- and cG-2-AllylP-treated groups. Survival is measured weekly from start of treatment (4 weeks) and used to produce Kaplan-Meier survival curves to show the proportion of mice that survive (y axis) at each weekly interval (x axis).
# For the survival measurements, the nocturnal activity analysis and the immunoblot analysis, cG-2-AllylP supplied by Neuren Pharmaceuticals Limited is administered daily via intra-peritoneal injections (20 mg/kg, vehicle=saline, 0.01% BSA). The treatment starts at PI 5 and is maintained throughout the course of the experiments. For intracellular physiology experiments, the mice are injected daily with cG-2-AllylP (20 mg/kg body weight, vehicle=saline, 0.01% BSA) for 2 weeks, from P15 to P28-P32 when they are used for acute slice preparation. For optical imaging experiments, mice are injected with cG-2-AllylP (20 mg/kg body weight, vehicle=saline, 0.01% BSA) daily from the day of the lid suture to the day of imaging.
# Therefore, we administer cG-2-AllylP orally to MeCP2 deficient mice. Briefly, an aqueous solution or other composition containing a pharmaceutically effective amount of cG-2-AllylP (20 or 80 mg/kg per animal) is administered daily.
structure (smiles),measurement,setting,value
"C=CC[C@]12CCCN1C(=O)CNC2=O [cG-2-AllylP, (8aS)-Allyl-hexahydropyrrolo[1,2-a]pyrazine-1,4-dione]",Gria 4 mRNA expression,[1]; 24 hr. time point after PBBI,significantly increased Gria 4
same,BDNF mRNA expression (trend),[1]; after PBBI,decreased BDNF
same,Crem mRNA expression (trend),[1]; after PBBI,decreased Crem
same,NTF3 mRNA expression (trend),[1]; after PBBI,decreased NTF3
same,NTF4 mRNA expression (trend),[1]; after PBBI,decreased NTF4
same,Pcdh8 mRNA expression (trend),[1]; after PBBI,decreased Pcdh8
same,Pim1 mRNA expression (trend),[1]; after PBBI,decreased Pim1
same,Ppp3ca mRNA expression (trend),[1]; after PBBI,increased Ppp3ca
same,"toxicity (coat, piloerection, eyes, gait, tremor, tail tone, reactivity)",[2],No instances of toxicity have been observed
same,BCL2 levels,[3],did not significantly alter
same,life expectancy,"[4]; MeCP2-/y mice, 20 mg/kg daily intra-peritoneal from P15",increase in life expectancy
same,survival,[4]; 20 mg/kg/day intraperitoneally from 4 weeks,survive substantially longer than saline-treated mice
same,survival,"[4]; oral, 20 or 80 mg/kg daily",survival is increased substantially
same,safety concerns,"[4]; mecp2 mice, 20 mg/kg/day intraperitoneally",No safety concerns are raised
